{"source": "patent US10933063B2", "about": "(priority 2017, dated 2021)", "note": "pIC50: −log10 of the molar value.", "data": [{"biological_target": "BTK (Homo sapiens (Human), UniProt Q06187)", "sequence (Q06187 whole entry, looked up, species assumed)": "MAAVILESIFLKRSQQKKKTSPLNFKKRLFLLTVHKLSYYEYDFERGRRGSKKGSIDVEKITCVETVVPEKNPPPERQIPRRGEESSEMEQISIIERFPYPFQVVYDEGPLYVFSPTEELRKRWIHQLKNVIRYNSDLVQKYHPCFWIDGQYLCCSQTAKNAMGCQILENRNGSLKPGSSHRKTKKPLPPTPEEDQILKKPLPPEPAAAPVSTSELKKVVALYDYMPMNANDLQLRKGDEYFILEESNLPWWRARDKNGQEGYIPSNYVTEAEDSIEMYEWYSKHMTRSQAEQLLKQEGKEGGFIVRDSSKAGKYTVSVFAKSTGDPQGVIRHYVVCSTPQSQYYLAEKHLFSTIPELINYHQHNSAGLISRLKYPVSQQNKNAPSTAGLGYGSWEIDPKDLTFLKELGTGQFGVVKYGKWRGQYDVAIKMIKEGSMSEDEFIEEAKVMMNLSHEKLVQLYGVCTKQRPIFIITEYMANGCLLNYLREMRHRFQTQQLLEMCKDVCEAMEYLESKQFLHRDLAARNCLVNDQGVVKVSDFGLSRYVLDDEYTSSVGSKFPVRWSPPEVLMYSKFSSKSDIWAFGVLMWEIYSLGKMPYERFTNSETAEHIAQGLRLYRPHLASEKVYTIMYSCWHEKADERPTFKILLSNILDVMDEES", "test": "biochemical", "values": [{"smiles": "C=CC(=O)N1CCCC[C@H]1c1nc(-c2ccc(OCc3cccc(F)c3F)cc2)c2c(C)nccn12", "note": "[Example 154, (S)-1-(2-(1-(4-((2,3-difluorobenzyl)oxy)phenyl)-8-methylimidazo[1,5-a]pyrazin-3-yl)piperidin-1-yl)prop-2-en-1-one]", "pIC50": "7.00 to 8.00"}, {"smiles": "C=CC(=O)N1CCC[C@@H](c2nc(-c3ccc(Oc4cccc(OC)c4F)cc3)c3c(C)ncc(C)n23)C1", "note": "[Example 76, (R)-1-(3-(1-(4-(2-fluoro-3-methoxyphenoxy)phenyl)-5,8-dimethylimidazo[1,5-a]pyrazin-3-yl)piperidin-1-yl)prop-2-en-1-one]", "pIC50": "7.00 to 8.00"}, {"smiles": "CC#CC(=O)N1CCCC[C@H]1c1nc(-c2ccc(OCc3cccc(F)c3)cc2)c2c(C)nccn12", "note": "[Example 140, (S)-1-(2-(1-(4-((3-fluorobenzyl)oxy)phenyl)-8-methylimidazo[1,5-a]pyrazin-3-yl)piperidin-1-yl)but-2-yn-1-one]", "pIC50": "6.00 to 7.00"}, {"smiles": "CC#CC(=O)N1CCC[C@H]1c1nc(-c2ccc(C(=O)Nc3cc(C(F)(F)F)ccn3)cc2F)c2c(CO)nccn12", "note": "[Example 208, (S)-4-(3-(1-(but-2-ynoyl)pyrrolidin-2-yl)-8-(hydroxymethyl)imidazo [1,5-a]pyrazin-1-yl)-3-fluoro-N-(4-(trifluoromethyl)pyridin-2-yl)benzamide]", "pIC50": "6.00 to 7.00"}, {"smiles": "C=CC(=O)N1CCCC[C@H]1c1nc(-c2ccc(Oc3cccc(OC)c3)cc2)c2cnccn12", "note": "[Example 58, (S)-1-(2-(1-(4-(3-methoxyphenoxy)phenyl)imidazo[1,5-a]pyrazin-3-yl)piperidin-1-yl)prop-2-en-1-one]", "pIC50": "7.00 to 8.00"}, {"smiles": "C=CC(=O)N1CCC[C@H]1c1nc(-c2ccc(COc3ccc(F)cc3)cc2)c2cnccn12", "note": "[Example 126, (S)-1-(2-(1-(4-((4-fluorophenoxy)methyl)phenyl)imidazo[1,5-a]pyrazin-3-yl)pyrrolidin-1-yl)prop-2-en-1-one]", "pIC50": "7.00 to 8.00"}, {"smiles": "C=CC(=O)N1CC[C@@H](c2nc(-c3ccc(C(=O)Nc4ccccn4)cc3)c3c(C)ncc(C)n23)C1", "note": "[Example 182, (R)-4-(3-(1-acryloylpyrrolidin-3-yl)-5,8-dimethylimidazo [1,5-a]pyrazin-1-yl)-N-(pyridin-2-yl)benzamide]", "pIC50": "7.00 to 8.00"}, {"smiles": "COc1cccc(Oc2ccc(-c3nc([C@@H]4CCC5CCC(=O)N5C4)n4ccncc34)cc2)c1F", "note": "(stereo partly drawn) [Example 213, (6R)-6-(1-(4-(2-fluoro-3-methoxyphenoxy)phenyl)imidazo[1,5-a]pyrazin-3-yl)hexahydroindolizin-3(2H)-one]", "pIC50": "6.00 to 7.00"}, {"smiles": "C=CC(=O)N1CCC[C@H]1c1nc(-c2ccc(COc3cccc(F)c3)cc2)c2cnccn12", "note": "[Example 145, (S)-1-(2-(1-(4-((3-fluorophenoxy)methyl)phenyl)imidazo[1,5-a]pyrazin-3-yl)pyrrolidin-1-yl)prop-2-en-1-one]", "pIC50": "7.00 to 8.00"}, {"smiles": "CC#CC(=O)N1CCC[C@H]1c1nc(-c2ccc(Oc3cccc(OC)c3F)cc2)c2c(C)ncc(C)n12", "note": "[Example 65, (S)-1-(2-(1-(4-(2-fluoro-3-methoxyphenoxy)phenyl)-5,8-dimethylimidazo[1,5-a]pyrazin-3-yl)pyrrolidin-1-yl)but-2-yn-1-one]", "pIC50": "7.00 to 8.00"}, {"smiles": "COc1cccc(Oc2ccc(-c3nc([C@@H]4CCCN4C(=O)/C(C#N)=C/C(C)(C)C)n4ccncc34)cc2)c1F", "note": "[Example 31, (S,E)-2-(2-(1-(4-(2-fluoro-3-methoxyphenoxy)phenyl)imidazo[1,5-a]pyrazin-3-yl)pyrrolidine-1-carbonyl)-4,4-dimethylpent-2-enenitrile]", "pIC50": "6.00 to 7.00"}, {"smiles": "C=CC(=O)N1CCCC[C@H]1c1nc(-c2ccc(COc3ccc(F)c(F)c3)cc2)c2cnccn12", "note": "[Example 148, (S)-1-(2-(1-(4-((3,4-difluorophenoxy)methyl)phenyl)imidazo[1,5-a]pyrazin-3-yl)piperidin-1-yl)prop-2-en-1-one]", "pIC50": "6.00 to 7.00"}]}]}
